Patent EP4722207A1, “OXOISOINDOLINYL-SUBSTITUTED TETRAHYDROPYRIMIDINEDIONE DERIVATIVE AND USE THEREOF” (Gluetacs Therapeutics (Shanghai) Co., Ltd., priority 2023, dated 2024)
pIC50: −log10 of the molar value.

What was measured:
IKZF3 = target: T1, IKZF3 (Homo sapiens, UniProt Q96SW2+Q9UKT9); experiment: Western-blot assay, substrate protein degradation in hPBMCs: IKZF3; type: cell-based; conditions: for IKZF3 substrate protein remaining %: compounds at 50 nM and 500 nM, 24 hours; for substrate protein remaining % IKZF3: 24 hours of compound treatment, 50 nM and 500 nM
T1 construct: effects of the compounds of the present disclosure on the expression of target proteins in cells; endogenous in cells; host or cells: human PBMCs (hPBMCs)

WEE1 = target: T2, WEE1 (Homo sapiens, UniProt P30291+Q96SW2); experiment: Western-blot assay, substrate protein degradation in hPBMCs: WEE1; type: cell-based; conditions: for WEE1 substrate protein remaining %: compounds at 50 nM and 500 nM, 24 hours; for substrate protein remaining % WEE1: 24 hours of compound treatment, 50 nM and 500 nM
T2 construct: effects of the compounds of the present disclosure on the expression of target proteins in cells; endogenous in cells; host or cells: human PBMCs (hPBMCs)

GSPT1 = target: T3, GSPT1 (Homo sapiens, UniProt P15170+Q96SW2); experiment: Western-blot assay, substrate protein degradation in hPBMCs: GSPT1; type: cell-based; conditions: for GSPT1 substrate protein remaining %: compounds at 50 nM and 500 nM, 24 hours; for substrate protein remaining % GSPT1: 24 hours of compound treatment, 50 nM and 500 nM
T3 construct: effects of the compounds of the present disclosure on the expression of target proteins in cells; endogenous in cells; host or cells: human PBMCs (hPBMCs)

IKZF1 = target: T4, IKZF1 (Homo sapiens, UniProt Q13422+Q96SW2); experiment: Western-blot assay, substrate protein degradation in hPBMCs: IKZF1; type: cell-based; conditions: for IKZF1 substrate protein remaining %: compounds at 50 nM and 500 nM, 24 hours; for substrate protein remaining % IKZF1: 24 hours of compound treatment, 50 nM and 500 nM
T4 construct: effects of the compounds of the present disclosure on the expression of target proteins in cells; endogenous in cells; host or cells: human PBMCs (hPBMCs)

[1] = target: T5, human Cereblon WT GST-tagged protein (Homo sapiens, UniProt Q96SW2); experiment: CRBN-binding affinity, CEREBLON BINDING kit (HTRF); conditions: for pIC50: 3 hours at room temperature; for inhibition at 0.5 µM: read-out: Inhibition Rate at 0.5 µM (%); for inhibition at 2 µM: read-out: Inhibition Rate at 2 µM (%)
T5 construct: purchased CISBIO 64BDCRBNPEH
Source text: The CEREBLON BINDING kits (specification: 10,000 tests; product number: Catalog # 64BDCRBNPEH; CISBIO company) was used to determine the CRBN binding ability of the compounds to be tested through a HTRF method (homogeneous time-resolved fluorescence). The specific methods are as follows: • 1. […] Specifically, diluent #9 (1X) solution was used as the diluent, and multiple concentration gradients were set. […] Into the 96-well plate, the diluted test compounds and corresponding detection reagents were added, resulting in final test compound concentrations of 2 µM and 0.5 µM, respectively. […] Then, 2.5 µL of human Cereblon WT GST-tagged protein solution was added to each well. Finally, 5 µL of the thoroughly mixed Thalidomide-Re reagent and GST Eu antibody working solution were added to each of the aforementioned wells. […] The blank control wells were sequentially added with 2.5 µL of diluent #9 (1X) solution, 2.5 µL of binding buffer, and 5 µL of thoroughly mixed Thalidomide-Re reagent and GST Eu antibody working solution. • 4. […] OD 620 nm control is the absorbance value of the blank control well at an emission wavelength of 620 nm. […] OD 620 nm Std0 is the absorbance value of the solvent control well at an emission wavelength of 620 nm.

IKZF2 = target: T6, IKZF2 (Homo sapiens, UniProt Q96SW2+Q9UKS7); experiment: Western-blot assay, substrate protein degradation in hPBMCs: IKZF2; type: cell-based; conditions: for IKZF2 substrate protein remaining %: compounds at 50 nM and 500 nM, 24 hours; for substrate protein remaining % IKZF2: 24 hours of compound treatment, 50 nM and 500 nM
T6 construct: effects of the compounds of the present disclosure on the expression of target proteins in cells; endogenous in cells; host or cells: human PBMCs (hPBMCs)

CK1α = target: T7, CK1α (Homo sapiens, UniProt P48729+Q96SW2); experiment: Western-blot assay, substrate protein degradation in hPBMCs: CK1α; type: cell-based; conditions: for CK1α substrate protein remaining %: compounds at 50 nM and 500 nM, 24 hours; for substrate protein remaining % CK1α: 24 hours of compound treatment, 50 nM and 500 nM
T7 construct: effects of the compounds of the present disclosure on the expression of target proteins in cells; endogenous in cells; host or cells: human PBMCs (hPBMCs)

MM.1S = experiment: Cell viability assay (CellTiter-Meiluncell Luminescent), tumor cell proliferation, MM.1S; conditions: Homo sapiens, MM1.S, 96 h, read-out: inhibitory activity (IC50, nM) against tumor cells proliferation, MM.1S
H292 = experiment: Cell viability assay (CellTiter-Meiluncell Luminescent), tumor cell proliferation, H292; conditions: Homo sapiens, NCI-H292, 96 h; for inhibition at 0.01 µM: read-out: Inhibition Rate at 10 nM (%); for inhibition at 0.5 µM: read-out: Inhibition Rate at 500 nM (%)
Protocol: The tumor cells used herein were cultured in a cell culture medium listed in table 2 at 37°C in an incubator with 5% CO2. Prior to experimentation, all cell lines used were correctly identified by STR profiling, and tested negative for mycoplasma contamination using a mycoplasma detection kit through routine screenings.
On the following day, the test compounds of the present disclosure were subjected to serial dilution. […] Subsequently, 0.5 µL of the test compound dilution was transferred into the 96-well plate containing the cells, with each well containing 100 µL of cell culture medium. […] Into the 96-well plate, the diluted test compounds and corresponding detection reagents were added, resulting in final test compound concentrations of 500 nM and 10 nM, respectively. The experimental procedure is described below using the diluted 2 µM test compound as an example.
After the cells were treated with the compounds of the present disclosure for a specified period, the cell viability assay reagent was added to the culture medium according to the kit's instructions to determine cell viability. […] All controls were treated using the same procedure as the compounds of the present disclosure. The growth inhibition curves for the compounds of the present disclosure were plotted using Prism GraphPad software, and the IC50 values were calculated therefrom.

MV-4-11 = experiment: Cell viability assay (CellTiter-Meiluncell Luminescent), tumor cell proliferation, MV-4-11; conditions: Homo sapiens, MV4-11, 96 h; for inhibition at 0.01 µM: read-out: Inhibition Rate at 10 nM (%); for inhibition at 0.5 µM: read-out: Inhibition Rate at 500 nM (%)
MDA-MB-231 = experiment: Cell viability assay (CellTiter-Meiluncell Luminescent), tumor cell proliferation, MDA-MB-231; conditions: Homo sapiens, MDA-MB-231, 96 h; for inhibition at 0.01 µM: read-out: Inhibition Rate at 10 nM (%); for inhibition at 0.5 µM: read-out: Inhibition Rate at 500 nM (%)
H2228 = experiment: Cell viability assay (CellTiter-Meiluncell Luminescent), tumor cell proliferation, H2228; conditions: Homo sapiens, NCI-H2228, 96 h; for inhibition at 0.01 µM: read-out: Inhibition Rate at 10 nM (%); for inhibition at 0.5 µM: read-out: Inhibition Rate at 500 nM (%)

T6 sequence (Q9UKS7 whole entry): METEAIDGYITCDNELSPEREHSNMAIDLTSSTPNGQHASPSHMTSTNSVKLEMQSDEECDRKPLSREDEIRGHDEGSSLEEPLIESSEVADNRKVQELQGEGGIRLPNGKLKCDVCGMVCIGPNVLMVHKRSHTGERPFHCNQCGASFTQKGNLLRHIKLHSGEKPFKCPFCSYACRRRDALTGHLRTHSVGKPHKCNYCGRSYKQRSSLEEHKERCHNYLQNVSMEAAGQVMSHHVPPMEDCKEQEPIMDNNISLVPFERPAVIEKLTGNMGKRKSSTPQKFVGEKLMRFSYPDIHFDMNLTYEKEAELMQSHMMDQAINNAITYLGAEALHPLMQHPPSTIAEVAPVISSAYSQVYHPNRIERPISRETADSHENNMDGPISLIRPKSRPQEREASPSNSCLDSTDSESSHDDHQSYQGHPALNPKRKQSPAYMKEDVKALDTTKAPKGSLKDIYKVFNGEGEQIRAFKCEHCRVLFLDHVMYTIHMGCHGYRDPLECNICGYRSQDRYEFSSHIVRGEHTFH
T6 sequence (Q96SW2 whole entry): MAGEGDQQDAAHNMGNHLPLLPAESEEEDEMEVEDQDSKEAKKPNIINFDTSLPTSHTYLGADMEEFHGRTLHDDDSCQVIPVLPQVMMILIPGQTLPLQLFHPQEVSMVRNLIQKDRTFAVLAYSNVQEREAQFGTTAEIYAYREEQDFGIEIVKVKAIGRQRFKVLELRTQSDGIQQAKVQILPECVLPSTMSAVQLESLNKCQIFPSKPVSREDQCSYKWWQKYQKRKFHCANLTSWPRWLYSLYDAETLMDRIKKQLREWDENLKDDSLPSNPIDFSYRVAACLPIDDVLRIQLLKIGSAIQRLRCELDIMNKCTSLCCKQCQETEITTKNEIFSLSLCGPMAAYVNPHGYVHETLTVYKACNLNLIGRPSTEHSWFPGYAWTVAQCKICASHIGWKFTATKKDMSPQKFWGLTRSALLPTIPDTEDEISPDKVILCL
T6 sequence (Q16531 whole entry partner): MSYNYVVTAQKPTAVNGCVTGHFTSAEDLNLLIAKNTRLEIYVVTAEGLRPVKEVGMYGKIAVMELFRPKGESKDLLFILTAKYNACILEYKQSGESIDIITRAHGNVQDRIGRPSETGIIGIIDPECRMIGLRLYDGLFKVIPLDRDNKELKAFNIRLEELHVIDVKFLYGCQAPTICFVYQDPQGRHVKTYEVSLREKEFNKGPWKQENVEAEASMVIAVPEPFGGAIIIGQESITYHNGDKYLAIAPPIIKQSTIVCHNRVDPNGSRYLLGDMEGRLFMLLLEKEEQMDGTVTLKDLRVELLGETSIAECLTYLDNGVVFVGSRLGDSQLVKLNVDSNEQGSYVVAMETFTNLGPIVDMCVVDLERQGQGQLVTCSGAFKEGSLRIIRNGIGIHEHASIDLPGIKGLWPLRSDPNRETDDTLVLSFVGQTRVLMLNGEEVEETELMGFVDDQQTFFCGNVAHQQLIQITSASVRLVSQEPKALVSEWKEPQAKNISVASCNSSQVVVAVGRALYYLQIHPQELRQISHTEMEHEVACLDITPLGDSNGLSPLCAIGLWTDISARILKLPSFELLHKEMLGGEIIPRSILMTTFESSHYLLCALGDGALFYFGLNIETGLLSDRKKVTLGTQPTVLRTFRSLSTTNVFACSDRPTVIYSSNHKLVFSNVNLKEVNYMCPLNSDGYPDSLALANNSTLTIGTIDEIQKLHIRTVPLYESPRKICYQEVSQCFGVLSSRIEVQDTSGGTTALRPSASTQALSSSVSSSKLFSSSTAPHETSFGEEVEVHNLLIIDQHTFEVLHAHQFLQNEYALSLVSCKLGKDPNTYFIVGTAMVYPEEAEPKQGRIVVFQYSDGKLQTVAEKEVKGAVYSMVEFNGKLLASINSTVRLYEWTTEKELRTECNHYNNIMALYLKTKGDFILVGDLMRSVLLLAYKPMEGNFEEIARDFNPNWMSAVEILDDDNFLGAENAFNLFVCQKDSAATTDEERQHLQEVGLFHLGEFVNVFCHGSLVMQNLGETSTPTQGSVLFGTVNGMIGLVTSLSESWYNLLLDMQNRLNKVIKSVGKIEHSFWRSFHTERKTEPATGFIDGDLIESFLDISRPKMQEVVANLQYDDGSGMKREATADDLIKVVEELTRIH
T1 sequence (Q9UKT9 whole entry): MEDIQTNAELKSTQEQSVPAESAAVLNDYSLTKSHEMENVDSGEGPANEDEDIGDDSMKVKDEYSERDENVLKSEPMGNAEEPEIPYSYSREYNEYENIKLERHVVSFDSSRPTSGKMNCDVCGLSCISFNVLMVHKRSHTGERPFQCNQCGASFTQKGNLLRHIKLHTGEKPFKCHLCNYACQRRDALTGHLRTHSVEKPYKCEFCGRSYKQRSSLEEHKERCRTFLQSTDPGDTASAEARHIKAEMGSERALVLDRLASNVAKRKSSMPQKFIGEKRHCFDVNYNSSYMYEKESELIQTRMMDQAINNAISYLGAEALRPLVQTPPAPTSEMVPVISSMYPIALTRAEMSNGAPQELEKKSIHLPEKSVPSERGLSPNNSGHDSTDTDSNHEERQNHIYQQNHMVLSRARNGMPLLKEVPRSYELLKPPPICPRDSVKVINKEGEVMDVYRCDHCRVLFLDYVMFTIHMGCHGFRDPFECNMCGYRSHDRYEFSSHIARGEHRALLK
T1 sequence (Q96SW2 whole entry): as the sequence (Q96SW2 whole entry) above
T1 sequence (Q16531 whole entry partner): as the sequence (Q16531 whole entry partner) above
T7 sequence (P48729 whole entry): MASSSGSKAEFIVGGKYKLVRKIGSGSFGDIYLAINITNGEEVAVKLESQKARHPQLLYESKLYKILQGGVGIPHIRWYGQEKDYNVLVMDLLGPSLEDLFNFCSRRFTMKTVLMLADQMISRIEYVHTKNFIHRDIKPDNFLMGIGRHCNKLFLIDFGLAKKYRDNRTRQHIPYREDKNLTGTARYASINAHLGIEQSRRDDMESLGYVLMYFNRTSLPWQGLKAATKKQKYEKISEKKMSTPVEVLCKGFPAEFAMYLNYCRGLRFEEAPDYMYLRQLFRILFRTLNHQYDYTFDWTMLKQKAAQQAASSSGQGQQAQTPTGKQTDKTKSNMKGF
T7 sequence (Q96SW2 whole entry): as the sequence (Q96SW2 whole entry) above
T7 sequence (Q16531 whole entry partner): as the sequence (Q16531 whole entry partner) above
T2 sequence (P30291 whole entry): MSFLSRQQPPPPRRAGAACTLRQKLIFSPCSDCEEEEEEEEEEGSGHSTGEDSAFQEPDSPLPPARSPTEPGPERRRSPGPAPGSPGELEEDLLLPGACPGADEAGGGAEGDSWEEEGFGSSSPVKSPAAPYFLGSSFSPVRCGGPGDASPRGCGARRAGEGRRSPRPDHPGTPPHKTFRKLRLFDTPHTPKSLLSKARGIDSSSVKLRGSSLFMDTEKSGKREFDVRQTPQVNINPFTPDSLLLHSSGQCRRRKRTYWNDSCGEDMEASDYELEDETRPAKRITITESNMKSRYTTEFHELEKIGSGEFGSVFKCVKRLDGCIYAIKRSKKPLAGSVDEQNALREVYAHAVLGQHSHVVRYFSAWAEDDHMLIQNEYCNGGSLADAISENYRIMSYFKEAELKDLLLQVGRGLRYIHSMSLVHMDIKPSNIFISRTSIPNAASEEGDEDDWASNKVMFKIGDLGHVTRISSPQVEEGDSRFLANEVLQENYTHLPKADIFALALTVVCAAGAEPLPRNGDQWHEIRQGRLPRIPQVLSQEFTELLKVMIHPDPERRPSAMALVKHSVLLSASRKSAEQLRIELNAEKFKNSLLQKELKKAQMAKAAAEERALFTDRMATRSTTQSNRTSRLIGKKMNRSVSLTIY
T2 sequence (Q96SW2 whole entry): as the sequence (Q96SW2 whole entry) above
T2 sequence (Q16531 whole entry partner): as the sequence (Q16531 whole entry partner) above
T5 sequence (Q96SW2 whole entry): as the sequence (Q96SW2 whole entry) above
T4 sequence (Q13422 whole entry): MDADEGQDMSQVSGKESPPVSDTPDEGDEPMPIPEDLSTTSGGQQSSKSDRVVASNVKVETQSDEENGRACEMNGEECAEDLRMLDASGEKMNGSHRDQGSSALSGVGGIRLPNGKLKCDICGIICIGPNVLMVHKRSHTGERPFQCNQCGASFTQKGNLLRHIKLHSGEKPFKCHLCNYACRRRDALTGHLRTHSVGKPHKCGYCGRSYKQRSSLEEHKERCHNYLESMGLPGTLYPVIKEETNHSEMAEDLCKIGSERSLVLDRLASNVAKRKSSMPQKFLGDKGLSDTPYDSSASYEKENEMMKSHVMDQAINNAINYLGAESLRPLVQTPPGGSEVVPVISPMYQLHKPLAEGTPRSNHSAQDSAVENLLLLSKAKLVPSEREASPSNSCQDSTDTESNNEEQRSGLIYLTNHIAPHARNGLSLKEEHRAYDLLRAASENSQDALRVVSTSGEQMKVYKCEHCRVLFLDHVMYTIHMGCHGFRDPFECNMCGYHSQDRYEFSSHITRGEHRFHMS
T4 sequence (Q96SW2 whole entry): as the sequence (Q96SW2 whole entry) above
T4 sequence (Q16531 whole entry partner): as the sequence (Q16531 whole entry partner) above

SMILES	pIC50 [1]	substrate protein remaining % IKZF3 (IKZF3)	substrate protein remaining % WEE1 (WEE1)	substrate protein remaining % GSPT1 (GSPT1)	substrate protein remaining % IKZF1 (IKZF1)	substrate protein remaining % IKZF2 (IKZF2)	substrate protein remaining % CK1α (CK1α)	inhibition at 0.01 µM (H292) [%]	inhibition at 0.5 µM (H292) [%]	inhibition at 0.01 µM (MV-4-11) [%]	inhibition at 0.5 µM (MV-4-11) [%]	inhibition at 0.5 µM [1] [%]	inhibition at 2 µM [1] [%]	inhibition at 0.01 µM (MDA-MB-231) [%]	inhibition at 0.5 µM (MDA-MB-231) [%]	other results
O=C1CCN(N2Cc3cc(CN4CCN(c5cccs5)CC4)ccc3C2=O)C(=O)N1 [GT-05073, 1-(1-oxo-5-((4-(thiophen-2-yl)piperazin-1-yl)methyl)isoindolin-2-yl)dihydropyrimidine-2,4(1H,3H)-dione]	5.82 to 6.00	–	–	–	–	–	–	–	–	–	–	–	–	–	–	IKZF3 substrate protein remaining % (IKZF3): A ("A" is defined as 0% ≤ substrate protein remaining % ≤ 80%); WEE1 substrate protein remaining % (WEE1): B ("B" is defined as 80%< substrate protein remaining %≤ 100%); GSPT1 substrate protein remaining % (GSPT1): B ("B" is defined as 80%< substrate protein remaining %≤ 100%); IKZF1 substrate protein remaining % (IKZF1): B ("B" is defined as 80%< substrate protein remaining %≤ 100%); IKZF2 substrate protein remaining % (IKZF2): B ("B" is defined as 80%< substrate protein remaining %≤ 100%); CK1α substrate protein remaining % (CK1α): B ("B" is defined as 80%< substrate protein remaining %≤ 100%)
N#Cc1ccc(N2CCN(Cc3ccc(COc4cccc5c4CN(N4CCC(=O)NC4=O)C5=O)cc3)CC2)c(F)c1 [GT-06132, 4-(4-(4-(((2-(2,4-dioxotetrahydropyrimidin-1(2H)-yl)-1-oxoisoindolin-4-yl)oxy)methyl)benzyl)piperazin-1-yl)-3-fluorobenzonitrile]	5.82 to 6.00	–	–	–	–	–	–	–	–	–	–	–	–	–	–	IC50 (MM.1S): 100 to 300 nM
O=C1CCN(N2Cc3cc(CN4CC5CCC4CN5C(c4ccccc4)c4ccccc4)ccc3C2=O)C(=O)N1 (centres unmarked) [GT-06450, 1-(5-((5-benzhydryl-2,5-diazabicyclo[2.2.2]octan-2-yl)methyl)-1-oxoisoindolin-2-yl)dihydropyrimidine-2,4(1H,3H)-dione]	5.72 to 5.82	–	–	–	–	–	–	–	–	–	–	–	–	–	–	IKZF3 substrate protein remaining % (IKZF3): A ("A" is defined as 0% ≤ substrate protein remaining % ≤ 80%); WEE1 substrate protein remaining % (WEE1): A ("A" is defined as 0% ≤ substrate protein remaining % ≤ 80%); GSPT1 substrate protein remaining % (GSPT1): A ("A" is defined as 0% ≤ substrate protein remaining % ≤ 80%); IKZF1 substrate protein remaining % (IKZF1): B ("B" is defined as 80%< substrate protein remaining %≤ 100%); IKZF2 substrate protein remaining % (IKZF2): A ("A" is defined as 0% ≤ substrate protein remaining % ≤ 80%); CK1α substrate protein remaining % (CK1α): B ("B" is defined as 80%< substrate protein remaining %≤ 100%)
O=C1CCN(N2Cc3cc(CN4CC=C(c5c[nH]c6cc(F)ccc56)CC4)ccc3C2=O)C(=O)N1 [GT-07574, 1-(5-((4-(6-fluoro-1H-indol-3-yl)-3,6-dihydropyridin-1(2H)-yl)methyl)-1-oxoisoindolin-2-yl)dihydropyrimidine-2,4(1H,3H)-dione]	5.72 to 5.82	B (80%< substrate protein remaining %≤ 100%)	A (0% ≤ substrate protein remaining % ≤ 80%)	A (0% ≤ substrate protein remaining % ≤ 80%)	B (80%< substrate protein remaining %≤ 100%)	A (0% ≤ substrate protein remaining % ≤ 80%)	A (0% ≤ substrate protein remaining % ≤ 80%)	–	–	–	–	–	–	–	–	–
Cc1nc(N2CCN(Cc3ccc4c(c3)CN(N3CCC(=O)NC3=O)C4=O)CC2)c2c(-c3ccccc3)csc2n1 [GT-08066, 1-(5-((4-(2-methyl-5-phenylthieno[2,3-d]pyrimidin-4-yl)piperazin-1-yl)methyl)-1-oxoisoindolin-2-yl)dihydropyrimidine-2,4(1H,3H)-dione]	–	B (80%< substrate protein remaining %≤ 100%)	B (80%< substrate protein remaining %≤ 100%)	B (80%< substrate protein remaining %≤ 100%)	B (80%< substrate protein remaining %≤ 100%)	A (0% ≤ substrate protein remaining % ≤ 80%)	A (0% ≤ substrate protein remaining % ≤ 80%)	20 to 40	20 to 40	18 to 25	10 to 18	20 to 30	60 to 80	15 to 18	15 to 18	–
Cc1nc(N2CCN(Cc3ccc4c(c3)CN(N3CCC(=O)NC3=O)C4=O)CC2)c2c3c(sc2n1)CCC3 [GT-08080, 1-(5-((4-(2-methyl-6,7-dihydro-5H-cyclopenta[4,5]thieno[2,3-d]pyrimidin-4-yl)piperazin-1-yl)methyl)-1-oxoisoindolin-2-yl)dihydropyrimidine-2,4(1H,3H)-dione]	–	B (80%< substrate protein remaining %≤ 100%)	A (0% ≤ substrate protein remaining % ≤ 80%)	A (0% ≤ substrate protein remaining % ≤ 80%)	B (80%< substrate protein remaining %≤ 100%)	B (80%< substrate protein remaining %≤ 100%)	A (0% ≤ substrate protein remaining % ≤ 80%)	40 to 60	20 to 40	–	–	20 to 30	53 to 60	18 to 25	15 to 18	inhibition at 0.01 µM (H2228): 30 to 40%; inhibition at 0.5 µM (H2228): 20 to 25%
Cc1nc(C2CCN(Cc3ccc4c(c3)CN(N3CCC(=O)NC3=O)C4=O)CC2)c2c(-c3ccccc3)csc2n1 [GT-08087, 1-(5-((4-(2-methyl-5-phenylthieno[2,3-d]pyrimidin-4-yl)piperidin-1-yl)methyl)-1-oxoisoindolin-2-yl)dihydropyrimidine-2,4(1H,3H)-dione]	–	–	–	–	–	–	–	–	–	30 to 40	30 to 40	20 to 30	60 to 80	–	–	–
O=C1CCN(N2Cc3cc(CN4CC=C(c5ncnc6scc(-c7ccccc7)c56)CC4)ccc3C2=O)C(=O)N1 [GT-08174, 1-(1-oxo-5-((4-(5-phenylthieno[2,3-d]pyrimidin-4-yl)-3,6-dihydropyridin-1(2H)-yl)methyl)isoindolin-2-yl)dihydropyrimidine-2,4(1H,3H)-dione]	–	–	–	–	–	–	–	10 to 15	20 to 40	25 to 30	10 to 18	20 to 30	53 to 60	18 to 25	25 to 40	inhibition at 0.01 µM (H2228): 15 to 20%; inhibition at 0.5 µM (H2228): 20 to 25%
Cc1nc(C2=CCN(Cc3ccc4c(c3)CN(N3CCC(=O)NC3=O)C4=O)CC2)c2c(-c3ccccc3)csc2n1 [GT-08176, 1-(5-((4-(2-methyl-5-phenylthieno[2,3-d]pyrimidin-4-yl)-3,6-dihydropyridin-1(2H)-yl)methyl)-1-oxoisoindolin-2-yl)dihydropyrimidine-2,4(1H,3H)-dione]	–	–	–	–	–	–	–	15 to 20	20 to 40	60 to 80	30 to 40	30 to 40	60 to 80	–	–	–
Cc1nc(C2=CCN(Cc3ccc4c(c3)CN(N3CCC(=O)NC3=O)C4=O)CC2)c2c3c(sc2n1)CCCC3 [GT-08177, 1-(5-((4-(2-methyl-5,6,7,8-tetrahydrobenzo[4,5]thieno[2,3-d]pyrimidin-4-yl)-3,6-dihydropyridin-1(2H)-yl)methyl)-1-oxoisoindolin-2-yl)dihydropyrimidine-2,4(1H,3H)-dione]	–	–	–	–	–	–	–	10 to 15	10 to 15	40 to 60	30 to 40	20 to 30	53 to 60	–	–	–
